melting point [°C]	SMILES
207 to 209	FC(F)(F)CN1CCC[C@H](Nc2ncccc2-c2cnc3[nH]ccc3n2)C1 [Example I-33, [3-(5H-Pyrrolo[2,3-b]pyrazin-2-yl)-pyridin-2-yl]-[(S)-1-(2,2,2-trifluoro-ethyl)-piperidin-3-yl]-amine]
100 to 110	CC(=O)N1CCCCC(Nc2ncccc2-c2cnc3[nH]ccc3n2)C1 (stereo not shown) [Example I-12, 1-{3-[3-(5H-Pyrrolo[2,3-b]pyrazin-2-yl)-pyridin-2-ylamino]-azepan-1-yl}-ethanone]
115 to 120	CCCC(=O)N1CC[C@@H](Nc2ncccc2-c2cnc3[nH]ccc3n2)C1 [Example I-21, 1-{(R)-3-[3-(5H-Pyrrolo[2,3-b]pyrazin-2-yl)-pyridin-2-ylamino]-pyrrolidin-1-yl}-butan-1-one]
215 to 217	CS(=O)(=O)N1CCCC(Nc2ncccc2-c2cnc3[nH]ccc3n2)CC1 (stereo not shown) [Example I-37, (1-Methane-sulfonyl-azepan-4-yl)-[3-(5H-pyrrolo[2,3-b]pyrazin-2-yl)-pyridin-2-yl]-amine]
178 to 180	CCCS(=O)(=O)N1C[C@@H](C)C[C@H](Nc2ncccc2-c2cnc3[nH]ccc3n2)C1 [Example I-25, [(3S,5S)-5-Methyl-1-(propane-1-sulfonyl)-piperidin-3-yl]-[3-(5H-pyrrolo[2,3-b]pyrazin-2-yl)-pyridin-2-yl]-amine]
187 to 189	CC(C)S(=O)(=O)N1CC[C@@H](Nc2ncccc2-c2cnc3[nH]ccc3n2)C1 [Example I-18, [(R)-1-(Propane-2-sulfonyl)-pyrrolidin-3-yl]-[3-(5H-pyrrolo[2,3-b]pyrazin-2-yl)-pyridin-2-yl]-amine]
222 to 224	CS(=O)(=O)N1CC[C@H](Nc2ncccc2-c2cnc3[nH]ccc3n2)C1 [Example I-11, ((S)-1-Methanesulfonyl-pyrrolidin-3-yl)-[3-(5H-pyrrolo[2,3-b]pyrazin-2-yl)-pyridin-2-yl]-amine]
253 to 255	Cc1ccc(-c2cnc3[nH]ccc3n2)c(NC2CCCN(S(C)(=O)=O)C2)n1 (stereo not shown) [Example I-31, (1-Methane-sulfonyl-piperidin-3-yl)-[6-methyl-3-(5H-pyrrolo[2,3-b]pyrazin-2-yl)-pyridin-2-yl]-amine]
224 to 226	CS(=O)(=O)N1CC[C@@H](Nc2ncccc2-c2cnc3[nH]ccc3n2)C1 [Example I-5, ((R)-1-Methanesulfonyl-pyrrolidin-3-yl)-[3-(5H-pyrrolo[2,3-b]pyrazin-2-yl)-pyridin-2-yl]-amine]
209 to 212	O=S(=O)(CC1CC1)N1CCC[C@H](Nc2ncccc2-c2cnc3[nH]ccc3n2)C1 [Example I-38, ((S)-1-Cyclopropyl-methanesulfonyl-piperidin-3-yl)-[3-(5H-pyrrolo[2,3-b]pyrazin-2-yl)-pyridin-2-yl]-amine]
134 to 137	CC(C)CS(=O)(=O)N1CC[C@@H](Nc2ncccc2-c2cnc3[nH]ccc3n2)C1 [Example I-19, [(R)-1-(2-Methyl-propane-1-sulfonyl)-pyrrolidin-3-yl]-[3-(5H-pyrrolo[2,3-b]pyrazin-2-yl)-pyridin-2-yl]-amine]
213 to 216	CS(=O)(=O)N1CCCCC(Nc2ncccc2-c2cnc3[nH]ccc3n2)C1 (stereo not shown) [Example I-14, (1-Methane-sulfonyl-azepan-3-yl)-[3-(5H-pyrrolo[2,3-b]pyrazin-2-yl)-pyridin-2-yl]-amine]
222 to 225	COC(=O)N1CC[C@H](Nc2ncccc2-c2cnc3[nH]ccc3n2)C1 [Example I-10, (S)-3-[3-(5H-Pyrrolo[2,3-b]pyrazin-2-yl)-pyridin-2-ylamino]-pyrrolidine-1-carboxylic acid methyl ester]
160 to 162	CC(C)CCS(=O)(=O)N1CC[C@@H](Nc2ncccc2-c2cnc3[nH]ccc3n2)C1 [Example I-27, [(R)-1-(3-Methyl-butane-1-sulfonyl)-pyrrolidin-3-yl]-[3-(5H-pyrrolo[2,3-b]pyrazin-2-yl)-pyridin-2-yl]-amine]
105 to 110	CCC(=O)N1CC[C@@H](Nc2ncccc2-c2cnc3[nH]ccc3n2)C1 [Example I-20, 1-{(R)-3-[3-(5H-Pyrrolo[2,3-b]pyrazin-2-yl)-pyridin-2-ylamino]-pyrrolidin-1-yl}-propan-1-one]
90 to 100	COC(=O)N1CCCCC(Nc2ncccc2-c2cnc3[nH]ccc3n2)C1 (stereo not shown) [Example I-13, 3-[3-(5H-Pyrrolo[2,3-b]pyrazin-2-yl)-pyridin-2-ylamino]-azepane-1-carboxylic acid methyl ester]
230 to 232	CCS(=O)(=O)N1CC[C@@H](Nc2ncccc2-c2cnc3[nH]ccc3n2)C1 [Example I-16, ((R)-1-Ethanesulfonyl-pyrrolidin-3-yl)-[3-(5H-pyrrolo[2,3-b]pyrazin-2-yl)-pyridin-2-yl]-amine]
204 to 207	CCS(=O)(=O)N1CCCC(Nc2nc(C)ccc2-c2cnc3[nH]ccc3n2)C1 (stereo not shown) [Example I-34, (1-Ethane-sulfonyl-piperidin-3-yl)-[6-methyl-3-(5H-pyrrolo[2,3-b]pyrazin-2-yl)-pyridin-2-yl]-amine]
254 to 259	CC(=O)N1CCCC(Nc2nc(C)ccc2-c2cnc3[nH]cc(Cl)c3n2)C1 (stereo not shown) [Example I-39, 1-{3-[3-(7-Chloro-5H-pyrrolo[2,3-b]pyrazin-2-yl)-6-methyl-pyridin-2-ylamino]-piperidin-1-yl}-ethanone]
218 to 220	Cc1ccc(-c2cnc3[nH]ccc3n2)c(NC2CCCN(S(=O)(=O)CC(C)(C)C)C2)n1 (stereo not shown) [Example I-36, [1-(2,2-Dimethyl-propane-1-sulfonyl)-piperidin-3-yl]-[6-methyl-3-(5H-pyrrolo[2,3-b]pyrazin-2-yl)-pyridin-2-yl]-amine]
198 to 200	CCCS(=O)(=O)N1CC[C@@H](Nc2ncccc2-c2cnc3[nH]ccc3n2)C1 [Example I-17, [(R)-1-(Propane-1-sulfonyl)-pyrrolidin-3-yl]-[3-(5H-pyrrolo[2,3-b]pyrazin-2-yl)-pyridin-2-yl]-amine]
221 to 224	COC(=O)N1CC[C@@H](Nc2ncccc2-c2cnc3[nH]ccc3n2)C1 [Example I-4, (R)-3-[3-(5H-Pyrrolo[2,3-b]pyrazin-2-yl)-pyridin-2-ylamino]-pyrrolidine-1-carboxylic acid methyl ester]

Source: patent US8618103B2 (priority 2009, dated 2013)
